In patent US20030083228A1, “Treatments for female sexual dysfunction and methods for identifying compounds useful for treating female sexual dysfunction” (priority 2001, published 2003):

How the values were obtained:
[1] = system: MDA-MB-231 cells; experiment: Inhibition of in vitro human breast tumor cell growth, ER-negative cell line; type: cell-based; conditions: MDA-MB-231 (ER-negative), 6 days incubation, direct cell counts
Experimental: The in vitro antiproliferative effects of (−)-cis-6-phenyl-5-[4-(2-pyrrolidin-1-yl-ethoxy)-phenyl]-5,6,7,8-tetrahydro-naphthalene-2-ol (PPTN) were tested using two types of human breast cancer cell lines: first, MCF-7 cells, which contain ER as well as progesterone receptors (PgR), and second, MDA-MB-231 cells, which lack ER and PgR, and enable the determination of an effect that is independent of the ER mechanism. The effect of PPTN on the growth of these different cell lines was determined by incubation of the cells with various compound concentrations for 6 days.
The antiproliferative effects were then determined by direct cell counts. PPTN inhibited the growth of the ER-positive cell line MCF-7.

[2] = target: melanocortin-4 receptors (Homo sapiens, UniProt P32245); experiment: [125I]AGRP competition binding assay; conditions: particularly melanocortin-4 receptors
Sequence of melanocortin-4 receptors (P32245 whole entry): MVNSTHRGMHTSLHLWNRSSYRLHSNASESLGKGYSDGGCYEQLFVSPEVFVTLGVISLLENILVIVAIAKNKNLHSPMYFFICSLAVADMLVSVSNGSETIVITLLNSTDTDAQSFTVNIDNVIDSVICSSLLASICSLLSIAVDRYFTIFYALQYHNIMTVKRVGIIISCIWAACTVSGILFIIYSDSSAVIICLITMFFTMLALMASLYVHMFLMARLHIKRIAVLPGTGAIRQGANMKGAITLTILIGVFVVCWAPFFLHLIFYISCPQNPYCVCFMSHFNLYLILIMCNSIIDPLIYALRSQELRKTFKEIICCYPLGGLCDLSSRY
Description: (§1) The first radioligand binding assay is an [^125I]AGRP competition binding assay. Compounds that attenuate binding of [^125I]AGRP or AGRP would be detected in this assay. It is noted that compounds can attenuate the binding of AGRP to melanocortin 3 and/or 4 receptors by binding to melanocortin 3 and/or 4 receptors or by binding to AGRP itself. The second radioligand binding assay is an assay using radiolabeled melanocortin ligands, for example, [^125I]norleucine D-phenylalanine melanocyte stimulating hormone ([^125I]NDP-MSH). Membranes prepared from cells expressing either melanocortin 3 or 4 receptors are used in the radioligand binding assays. The preparation and use of [^125I]AGRP and [^125I]NDP-MSH is well known in the art. See, for example, Dang et al., Molecular Endocrinology, 13, 148-155 (1999). In addition, the preparation and use of membranes from cells expressing either melanocortin 3 or 4 receptors are also well known in the art. See, Bass, et al., Molecular Pharmacology, 50, 709-715 (1996).
(§2) Specific Activity of [^125I]AGRP is 2200 Ci/mmole. The final concentration of [^125I]AGRP is 100 pM. Therefore, a 2 nM (20×) stock needs to be made in binding buffer. The concentration of [^125I]AGRP varies from 40-60 nM. [^125I]AGRP can be obtained from New England Nuclear, Boston, Mass.
(§3) The competition assay can be run using 96 well plates. […]

[3] = system: melanocortin receptors; experiment: [125I]NDP-MSH competition binding assay
Description: as §1
as §2, with “of [^125I]NDP-MSH” for “of [^125I]AGRP”, “is 250” for “is 100”, “a 5” for “a 2”, “nM. [^125I]NDP-MSH” for “nM. [^125I]AGRP”
as §3

Row | SMILES | effect on cell proliferation [1] | binding of agouti-related protein to melanocortin receptors [2] | binding of α-melanocyte stimulating hormone to melanocortin receptors [3]
1 | Oc1ccc2c(c1)CC[C@H](c1ccccc1)[C@@H]2c1ccc(OCCN2CCCC2)cc1 [PPTN, (−)-cis-6-phenyl-5-[4-(2-pyrrolidin-1-yl-ethoxy)-phenyl]-5,6,7,8-tetrahydro-naphthalene-2-ol] | did not inhibit cell proliferation | – | –
2 | O=[N+]([O-])c1ccc(N2C3c4ccccc4CCN3N(c3ccc([N+](=O)[O-])cc3)C3c4ccccc4CCN32)cc1 (stereo not drawn) [8,16-bis-(4-nitro-phenyl)-5,6,8,8a,13,14,16,16a-octahydro-[1,2,4,5]tetrazino[6,1-a;3,4-a′]diisoquinoline] | – | attenuates | does not attenuate
